Experimental data as given in patent publication US20210024507A1, “Compounds” (Step Pharma S.A.S., priority 2018, published 2021).
Where two headings read alike, the source gives them in different places.

Target: T1, human CTPS1 (Homo sapiens, UniProt P17812)
T1 construct: purchased Proteros biostructures GmbH
T1 sequence (P17812 1-591): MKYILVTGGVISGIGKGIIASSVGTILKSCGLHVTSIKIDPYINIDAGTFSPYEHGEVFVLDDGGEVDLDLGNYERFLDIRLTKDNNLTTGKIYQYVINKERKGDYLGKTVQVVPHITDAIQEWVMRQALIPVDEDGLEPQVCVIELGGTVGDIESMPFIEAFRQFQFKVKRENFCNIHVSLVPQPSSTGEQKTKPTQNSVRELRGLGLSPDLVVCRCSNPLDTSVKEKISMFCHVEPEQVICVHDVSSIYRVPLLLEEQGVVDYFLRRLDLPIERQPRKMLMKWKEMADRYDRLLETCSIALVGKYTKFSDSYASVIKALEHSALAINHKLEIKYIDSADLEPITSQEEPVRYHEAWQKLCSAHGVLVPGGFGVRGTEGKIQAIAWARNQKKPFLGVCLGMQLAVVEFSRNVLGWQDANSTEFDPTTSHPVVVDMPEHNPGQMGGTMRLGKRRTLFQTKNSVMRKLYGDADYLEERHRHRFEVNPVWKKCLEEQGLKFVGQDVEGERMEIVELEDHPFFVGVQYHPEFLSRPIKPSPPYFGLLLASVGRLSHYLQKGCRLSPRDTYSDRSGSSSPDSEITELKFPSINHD
Assay: Human CTPS1 enzyme inhibition (ADP-Glo Max assay)
Format: biochemical
Settings: human full length CTPS1, 25° C.
Procedure: The enzyme inhibitory activities of compounds invented against the target of interest were determined using the ADP-GIoTM Max assay (Promega, UK). Assays for human CTPS1 were performed in lx assay buffer containing 50mM Tris, 10mM MgCl2, 0.01% Tween-20, pH to 8.0 accordingly. Finally, immediately before use, L-cysteine was added to the lx assay buffer to a final concentration of 2mM. All reagents are from Sigma-Aldrich unless specified otherwise. Human full length active C-terminal FLAG-Hiss-tag CTPS1 (UniProtKB - P17812, CTPS[1-591]-[…]) was obtained from Proteros biostructures GmbH.
Assay Procedure 3× human CTPS1 protein was prepared in lx assay buffer to the final working protein concentration required for the reaction. A 2uL volume per well of 3x human CTPS1 protein was mixed with 2uL per well of 3× test compound (compound prepared in lx assay buffer to an appropriate final 3× compound concentration respective to the concentration response curve designed for the compounds under test) for 10 minutes at 25° C. The enzymatic reaction was then initiated by addition of a 2uL per well volume of a pre-mixed substrate mix (UltraPure ATP from ADP-GIo™ Max kit (0.31mM), GTP (0.034mM), UTP (0.48mM) and L-glutamine (0.186mM)) and the mixture was incubated for an appropriate amount of time within the determined linear phase of the reaction at 25° C. under sealed plate conditions with constant agitation at 500 revolutions per minute (rpm). ADP-GIo™ Max reagent was added for 60 minutes ([…] per well) and subsequently ADP-GIo™ Max development reagent was added for 60 minutes (12uL per well) prior to signal detection in a microplate reader (EnVision® Multilabel Reader, Perkin Elmer). Following each reagent addition over the course of the assay, assay plates were pulse centrifuged for 30 seconds at 500rpm.
In all cases, the enzyme converts ATP to ADP and the ADP-GIo™ Max reagent subsequently depletes any remaining endogenous ATP in the reaction system. The ADP-GIo™ Max detection reagent converts the ADP that has been enzymatically produced back into ATP and using ATP as a substrate together with luciferin for the enzyme luciferase, light is generated which produces a detectable luminescence. […] The percentage inhibition produced by each concentration of compound was calculated using the equation shown below: […]
Percentage inhibition was then plotted against compound concentration, and the 50% inhibitory concentration (IC50) was determined from the resultant concentration-response curve.

[1] = read-out: CTPS1 (Human CTPS1 Enzyme Inhibition, IC50 grouped by potency range)

Row | IC50 [1] [nM] | IC50 (numeric value printed instead of class symbol, read-out: CTPS1 (Human CTPS1 Enzyme Inhibition, IC50)) [nM] | SMILES
1 | ≤ 100 |  | CCOc1cncc(-c2ccc(NC(=O)C(CC)c3nccc(NS(=O)(=O)C4CC4)n3)nc2)n1 (stereo not shown) [P208, 2-(4-(cyclopropanesulfonamido)pyrimidin-2-yl)-N-(5-(6-ethoxypyrazin-2-yl)pyridin-2-yl)butanamide]
2 | 100 to 1000 |  | CCOc1cncc(-c2ccc(NC(=O)C(C)(CCOC)c3cncc(NS(C)(=O)=O)n3)nc2)n1 (stereo not shown) [P199, N-(5-(6-ethoxypyrazin-2-yl)pyridin-2-yl)-4-methoxy-2-methyl-2-(6-(methylsulfonamido)pyrazin-2-yl)butanamide]
3 | ≤ 100 |  | CCC(C(=O)Nc1ccc(-c2cncc(OC)n2)cc1)c1ccnc(NS(=O)(=O)C2CC2)n1 (stereo not shown) [P106, 2-(2-(cyclopropanesulfonamido)pyrimidin-4-yl)-N-(4-(6-methoxypyrazin-2-yl)phenyl)butanamide]
4 | 1000 to 10000 |  | CCC(C(=O)Nc1ccc(-c2cccnc2)cn1)c1ccnc(NS(=O)(=O)C2CC2)n1 (stereo not shown) [P86, N-([3,3′-bipyridin]-6-yl)-2-(2-(cyclopropanesulfonamido)pyrimidin-4-yl)butanamide]
5 | ≤ 100 |  | CCOc1cncc(-c2ccc(NC(=O)C(OC)c3cncc(NS(=O)(=O)C4CC4)n3)cc2)n1 (stereo not shown) [P204, 2-(6-(cyclopropanesulfonamido)pyrazin-2-yl)-N-(4-(6-ethoxypyrazin-2-yl)phenyl)-2-methoxyacetamide]
6 | 100 to 1000 |  | CCC(C(=O)Nc1ccc(-c2cncc(OC(C)C)c2)cc1)c1ccnc(NS(=O)(=O)C2CC2)n1 (stereo not shown) [P101, 2-(2-(cyclopropanesulfonamido)pyrimidin-4-yl)-N-(4-(5-isopropoxypyridin-3-yl)phenyl)butanamide]
7 | 100 to 1000 |  | CCC(C(=O)Nc1ccc(-c2cccnc2)cc1)c1ccnc(NS(=O)(=O)C2CC2)n1 (stereo not shown) [P102, 2-(2-(cyclopropanesulfonamido)pyrimidin-4-yl)-N-(4-(pyridin-3-yl)phenyl)butanamide]
8 | 100 to 1000 |  | CCC(C(=O)Nc1ccc(-c2cncc(OC(C)C)c2)cc1F)c1ccnc(NS(=O)(=O)C2CC2)n1 (stereo not shown) [P92, 2-(2-(cyclopropanesulfonamido)pyrimidin-4-yl)-N-(2-fluoro-4-(5-isopropoxypyridin-3-yl)phenyl)butanamide]
9 | 1000 to 10000 |  | CCC(C(=O)Nc1ccc(-c2cccnc2)cc1F)c1ccnc(NS(=O)(=O)C2CC2)n1 (stereo not shown) [P93, 2-(2-(cyclopropanesulfonamido)pyrimidin-4-yl)-N-(2-fluoro-4-(pyridin-3-yl)phenyl)butanamide]
10 |  | 58600 | CS(=O)(=O)Nc1cncc(CC(=O)Nc2ccc(-c3cccnc3)cc2)n1 [P194, 2-(6-(methylsulfonamido)pyrazin-2-yl)-N-(4-(pyridin-3-yl)phenyl)acetamide]
11 | 100 to 1000 |  | CCC(C(=O)Nc1ccc(-c2cncc(OCC(F)(F)F)c2)cc1)c1ccnc(NS(=O)(=O)C2CC2)n1 (stereo not shown) [P100, 2-(2-(cyclopropanesulfonamido)pyrimidin-4-yl)-N-(4-(5-(2,2,2-trifluoroethoxy)pyridin-3-yl)phenyl)butanamide]
12 | 100 to 1000 |  | CCC(C(=O)Nc1ccc(-c2cncc(C#N)c2)cc1)c1ccnc(NS(=O)(=O)C2CC2)n1 (stereo not shown) [P99, N-(4-(5-cyanopyridin-3-yl)phenyI)-2-(2-(cyclopropanesulfonamido)pyrimidin-4-yl)butanamide]
13 | 100 to 1000 |  | CCOc1cncc(-c2ccc(C(=O)NC(CC)c3cncc(NS(=O)(=O)C4CC4)n3)c(F)c2)n1 (stereo not shown) [P223, N-(1-(6-(cyclopropanesulfonamido)pyrazin-2-yl)propyl)-4-(6-ethoxypyrazin-2-yl)-2-fluorobenzamide]
14 | 100 to 1000 |  | CCC(C(=O)Nc1ccc(-c2cncc(Cl)c2)cc1F)c1ccnc(NS(=O)(=O)C2CC2)n1 (stereo not shown) [P90, N-(4-(5-chloropyridin-3-yl)-2-fluorophenyl)-2-(2-(cyclopropanesulfonamido)pyrimidin-4-yl)butanamide]
15 | 100 to 1000 |  | CCC(C(=O)Nc1ccc(-c2cncc(OCC(F)(F)F)c2)cn1)c1ccnc(NS(=O)(=O)C2CC2)n1 (stereo not shown) [P85]
16 | ≤ 100 |  | CCC(NC(=O)c1ccc(-c2cncc(OC(C)C)n2)cc1)c1ccnc(NS(=O)(=O)C2CC2)n1 (stereo not shown) [P218, N-(1-(2-(cyclopropanesulfonamido)pyrimidin-4-yl)propyl)-4-(6-isopropoxypyrazin-2-yl)benzamide]
17 | 1000 to 10000 |  | CCC(C(=O)Nc1ccc(-c2cncc(Cl)c2)cc1)c1cccc(NS(=O)(=O)C2CC2)n1 (stereo not shown) [P189, N-(4-(5-chloropyridin-3-yl)phenyl)-2-(6-(cyclopropanesulfonamido)pyridin-2-yl)butanamide]
18 | 100 to 1000 |  | CCC(C(=O)Nc1ccc(-c2cncc(C(F)(F)F)n2)cn1)c1cccc(NS(=O)(=O)C2CC2)n1 (stereo not shown) [P187, 2-(6-(cyclopropanesulfonamido)pyridin-2-yl)-N-(5-(6-(trifluoromethyl)pyrazin-2-yl)pyridin-2-yl)butanamide]
19 | ≤ 100 |  | CCOc1cncc(-c2ccc(NC(=O)C(C)(OC)c3cncc(NS(=O)(=O)C4CC4)n3)nc2)n1 (stereo not shown) [P205, 2-(6-(cyclopropanesulfonamido)pyrazin-2-yl)-N-(5-(6-ethoxypyrazin-2-yl)pyridin-2-yl)-2-methoxypropanamide]
20 | 100 to 1000 |  | CCOc1cncc(-c2ccc(C(=O)NC(CC)c3ccnc(NS(=O)(=O)C4CC4)n3)nc2)n1 (stereo not shown) [P210, N-(1-(2-(cyclopropanesulfonamido)pyrimidin-4-yl)propyl)-5-(6-ethoxypyrazin-2-yl)picolinamide]
21 | 100 to 1000 |  | CCC(NC(=O)c1ccc(-c2cncc(Cl)c2)cc1F)c1ccnc(NS(=O)(=O)C2CC2)n1 (stereo not shown) [P212, 4-(5-chloropyridin-3-yl)-N-(1-(2-(cyclopropanesulfonamido)pyrimidin-4-yl)propyl)-2-fluorobenzamide]
22 | 100 to 1000 |  | CCC(NC(=O)c1ccc(-c2cncc(C(F)(F)F)n2)cc1)c1ccnc(NS(=O)(=O)C2CC2)n1 (stereo not shown) [P217, N-(1-(2-(cyclopropanesulfonamido)pyrimidin-4-yl)propyl)-4-(6-(trifluoromethyl)pyrazin-2-yl)benzamide]
23 | ≤ 100 |  | CCOc1cncc(-c2ccc(NC(=O)C(OC)c3cncc(NS(=O)(=O)C4CC4)n3)nc2)n1 (stereo not shown) [P203, 2-(6-(cyclopropanesulfonamido)pyrazin-2-yl)-N-(5-(6-ethoxypyrazin-2-yl)pyridin-2-yl)-2-methoxyacetamide]
24 | 100 to 1000 |  | CCC(C(=O)Nc1ccc(-c2cncc(C(F)(F)F)c2)cc1)c1ccnc(NS(=O)(=O)C2CC2)n1 (stereo not shown) [P7, 2-(2-(Cyclopropanesulfonamido)pyrimidin-4-yl)-N-(4-(5-(trifluoromethyl)pyridin-3-yl)phenyl)butanamide]
25 | 100 to 1000 |  | CCOc1cncc(-c2ccc(C(=O)NC(C)(CC)c3ccnc(NS(=O)(=O)C4CC4)n3)c(F)c2)n1 (stereo not shown) [P220, N-(2-(2-(cyclopropanesulfonamido)pyrimidin-4-yl)butan-2-yl)-4-(6-ethoxypyrazin-2-yl)-2-fluorobenzamide]
26 | 100 to 1000 |  | CC(C(=O)Nc1ccc(-c2cccnc2)cc1)c1ccnc(NS(=O)(=O)C2CC2)n1 (stereo not shown) [P111, 2-(2-(cyclopropanesulfonamido)pyrimidin-4-yl)-N-(4-(pyridin-3-yl)phenyl)propanamide]
27 | 100 to 1000 |  | CCC(C(=O)Nc1ccc(-c2cncc(OCC(F)(F)F)c2)cc1F)c1ccnc(NS(=O)(=O)C2CC2)n1 (stereo not shown) [P91, 2-(2-(cyclopropanesulfonamido)pyrimidin-4-yl)-N-(2-fluoro-4-(5-(2,2,2-trifluoroethoxy)pyridin-3-yl)phenyl)butanamide]
28 | 100 to 1000 |  | CCC(C(=O)Nc1ccc(-c2cnccn2)cc1F)c1ccnc(NS(=O)(=O)C2CC2)n1 (stereo not shown) [P6, 2-(2-(Cyclopropanesulfonamido)pyrimidin-4-yl)-N-(2-fluoro-4-(pyrazin-2-yl)phenyl)butanamide]
